From ChEMBL document CHEMBL5338785, “Development of Aromatic-Linked Diamino Acid Antimicrobial Peptide Mimics with Low Hemolytic Toxicity and Excellent Activity against Methicillin-Resistant Staphylococcus aureus (MRSA)” (J Med Chem, 2023)
≈ marks a conversion by molar mass, not a printed value.

Experiments:
[1] = Hemolytic activity in sheep RBC assessed as hemolysis incubated for 1 hr by microplate reader method; type: toxicity, cell-based, Ovis aries, Erythrocyte; conditions: sheep red blood cells
Escherichia coli = assay: Antibacterial activity against Escherichia coli assessed as bacterial growth inhibition incubated for 18 hrs by CLSI protocol based Mueller-Hinton broth assay; type: functional; conditions: Escherichia coli, read-out: MIC
[2] = Selectivity index, ratio of HC50 for hemolytic activity in sheep RBC to MIC for antibacterial activity against methicillin-resistant Staphylococcus aureus assessed as bacterial growth inhibition; type: toxicity; conditions: sheep red blood cells
Staphylococcus aureus = assay: Antibacterial activity against methicillin-resistant Staphylococcus aureus assessed as bacterial growth inhibition incubated for 18 hrs by CLSI protocol based Mueller-Hinton broth assay; type: functional; conditions: Staphylococcus aureus, read-out: MIC
Enterococcus faecalis = assay: Antibacterial activity against Enterococcus faecalis assessed as bacterial growth inhibition incubated for 18 hrs by CLSI protocol based Mueller-Hinton broth assay; type: functional; conditions: Enterococcus faecalis, 18 h, read-out: MIC
[3] = system: Stenotrophomonas maltophilia; assay: Antibacterial activity against Stenotrophomonas maltophilia assessed as bacterial growth inhibition incubated for 18 hrs by CLSI protocol based Mueller-Hinton broth assay; type: functional; conditions: Stenotrophomonas maltophilia, read-out: MIC

SMILES	HC50 at 1 h [1]	MIC (Escherichia coli; 18 h)	selectivity ratio [2]	MIC (Staphylococcus aureus)	MIC (Enterococcus faecalis)	MIC [3]	MIC (Escherichia coli)
CCCCCCCCCN(CCCCOc1ccc(OCCCCN(CCCCCCCCC)C(=O)[C@@H](N)CCCCN)cc1)C(=O)[C@@H](N)CCCCN.Cl.Cl.Cl.Cl	12 µg/mL	2 µg/mL	6	2 µg/mL	1 µg/mL	1 µg/mL	–
CCCCCCCN(CCOc1ccc(OCCN(CCCCCCC)C(=O)[C@H](C)N)cc1)C(=O)[C@H](C)N.Cl.Cl	76 µg/mL	2 µg/mL	76	1 µg/mL	2 µg/mL	2 µg/mL	–
CCCCCCCCCN(CCOc1ccc(OCCN(CCCCCCCCC)C(=O)[C@@H](N)CCCCN)cc1)C(=O)[C@@H](N)CCCCN.Cl.Cl.Cl.Cl	21 µg/mL	2 µg/mL	10.5	2 µg/mL	1 µg/mL	2 µg/mL	–
C[C@@H](O)[C@H]1C(=O)N2C(C(=O)O)=C(S[C@@H]3CN[C@H](C(=O)N(C)C)C3)[C@H](C)[C@H]12 [MEROPENEM]	–	–	–	–	–	–	0.062 µg/mL (≈ 0.162 µM)
CCCCCCN(CCCOc1cccc(-c2cccc(OCCCN(CCCCCC)C(=O)[C@@H](N)CCCCN)c2)c1)C(=O)[C@@H](N)CCCCN.Cl.Cl.Cl.Cl	216 µg/mL	1 µg/mL	432	0.5 µg/mL	0.5 µg/mL	1 µg/mL	–
CCCCCCCCCCN(CCOc1ccc(OCCN(CCCCCCCCCC)C(=O)[C@@H](N)CCCCN)cc1)C(=O)[C@@H](N)CCCCN.Cl.Cl.Cl.Cl	< 2.5 µg/mL	4 µg/mL	< 0.625	4 µg/mL	2 µg/mL	2 µg/mL	–
CCCCCCN(CCCOc1ccc2ccccc2c1-c1c(OCCCN(CCCCCC)C(=O)[C@@H](N)CCCCN)ccc2ccccc12)C(=O)[C@@H](N)CCCCN.Cl.Cl.Cl.Cl (stereo in doubt; 8m)	61 µg/mL	2 µg/mL	61	1 µg/mL	1 µg/mL	1 µg/mL	–
CCCCCCCCN(CCCCOc1ccc(OCCCCN(CCCCCCCC)C(=O)[C@@H](N)CCCCN)cc1)C(=O)[C@@H](N)CCCCN.Cl.Cl.Cl.Cl	28 µg/mL	2 µg/mL	14	2 µg/mL	1 µg/mL	1 µg/mL	–
CCCCCCCN(CCCOc1ccccc1)C(=O)[C@@H](N)CCCCN.Cl.Cl	773 µg/mL	128 µg/mL	24.2	32 µg/mL	16 µg/mL	64 µg/mL	–
CCCCCCCCN(CCCOc1ccc(OCCCN(CCCCCCCC)C(=O)[C@@H](N)CCCCN)cc1)C(=O)[C@@H](N)CCCCN.Cl.Cl.Cl.Cl	37 µg/mL	2 µg/mL	18.5	2 µg/mL	1 µg/mL	1 µg/mL	–
CCCCCCCN(CCOc1ccc(OCCN(CCCCCCC)C(=O)[C@@H](N)[C@@H](C)CC)cc1)C(=O)[C@@H](N)[C@@H](C)CC.Cl.Cl	47 µg/mL	2 µg/mL	94	0.5 µg/mL	1 µg/mL	2 µg/mL	–
CCCCCCN(CCCOc1ccccc1)C(=O)[C@@H](N)CCCCN.Cl.Cl	> 1000 µg/mL	128 µg/mL	> 15.6	64 µg/mL	64 µg/mL	128 µg/mL	–
CCCCCCCCN(CCCOc1ccccc1)C(=O)[C@@H](N)CCCCN.Cl.Cl	275 µg/mL	32 µg/mL	34	8 µg/mL	4 µg/mL	16 µg/mL	–
CCCCCCCCCN(CCCOc1ccccc1)C(=O)[C@@H](N)CCCCN.Cl.Cl	89 µg/mL	8 µg/mL	45.5	2 µg/mL	2 µg/mL	8 µg/mL	–
CCCCCCCCN(CCCOc1ccc(-c2ccc(OCCCN(CCCCCCCC)C(=O)[C@@H](N)CCCCN)cc2)cc1)C(=O)[C@@H](N)CCCCN.Cl.Cl.Cl.Cl	< 0.25 µg/mL	4 µg/mL	< 0.125	2 µg/mL	2 µg/mL	4 µg/mL	–
CCCCN(CCCOc1ccccc1-c1ccccc1OCCCN(CCCC)C(=O)[C@@H](N)CCCCN)C(=O)[C@@H](N)CCCCN.Cl.Cl.Cl.Cl	> 1000 µg/mL	32 µg/mL	> 125	8 µg/mL	8 µg/mL	32 µg/mL	–
CCCCCCCN(CCCCOc1ccc(OCCCCN(CCCCCCC)C(=O)[C@@H](N)CCCCN)cc1)C(=O)[C@@H](N)CCCCN.Cl.Cl.Cl.Cl	148 µg/mL	1 µg/mL	74	2 µg/mL	1 µg/mL	1 µg/mL	–
